Assays:
GS (mung bean) = details: cited from earlier work
GS [1] = biological target: GS (Rattus norvegicus, UniProt P09606); format: in vivo, Wistar rats; set-up: from tissue; host or cells: Wistar rat brain homogenate or membranes; in A19 also liver and lungs
Experimental: (§1) Cortex, hippocampi and thalamus/hypothalamus were carefully isolated immediately after euthanasia. Membranes were prepared and the activity of GS determined in these different structures (as mentioned above for the whole brain).

[2] = Adrenal weight of rats administered methylprednisolone; format: in vivo, Wistar rats
Experimental: Wistar rats were administered during 21 days once a day with methyprednisolone (5 mg/kg i.p.) plus GF (0.001, 0.01, 0.1 mg/kg), NF (1 and 10 mg/kg) or vehicle (PCB; i.p). Twenty-four hours after the last administrations, they were euthanatized. A complete necropsy was performed and main organs weighted.

GS [3] = biological target: GS (Mus musculus, UniProt P15105); format: in vivo, BALB/c mice; set-up: from tissue; host or cells: mouse brain (whole brain, cortex, hippocampus, thalamus/hypothalamus); details: 24 h after single i.p., NF 10 and 100 mg/kg
Chain of GS (Mus musculus, UniProt P15105) (P15105 2-373 limits assumed): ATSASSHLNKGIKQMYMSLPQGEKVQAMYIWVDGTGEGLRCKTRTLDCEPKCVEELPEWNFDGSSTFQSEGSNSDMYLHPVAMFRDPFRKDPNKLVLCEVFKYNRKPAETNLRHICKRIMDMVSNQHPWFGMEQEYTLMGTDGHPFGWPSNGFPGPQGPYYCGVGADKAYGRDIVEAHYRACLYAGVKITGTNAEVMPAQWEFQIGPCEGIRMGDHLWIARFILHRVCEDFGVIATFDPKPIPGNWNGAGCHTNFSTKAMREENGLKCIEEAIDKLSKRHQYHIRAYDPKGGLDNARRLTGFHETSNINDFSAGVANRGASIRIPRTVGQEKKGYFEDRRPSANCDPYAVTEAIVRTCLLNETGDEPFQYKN
Experimental: as §1

Wistar rat brain GS = biological target: T1, Wistar rat brain GS (Rattus norvegicus, UniProt P09606); assay: GS activity in Wistar rat brain homogenates; format: biochemical; details: in absence of 2β-ME
T1 construct: from tissue; host or cells: Wistar rat brain homogenate or membranes; in A19 also liver and lungs
T1 sequence (P09606 2-373 limits assumed): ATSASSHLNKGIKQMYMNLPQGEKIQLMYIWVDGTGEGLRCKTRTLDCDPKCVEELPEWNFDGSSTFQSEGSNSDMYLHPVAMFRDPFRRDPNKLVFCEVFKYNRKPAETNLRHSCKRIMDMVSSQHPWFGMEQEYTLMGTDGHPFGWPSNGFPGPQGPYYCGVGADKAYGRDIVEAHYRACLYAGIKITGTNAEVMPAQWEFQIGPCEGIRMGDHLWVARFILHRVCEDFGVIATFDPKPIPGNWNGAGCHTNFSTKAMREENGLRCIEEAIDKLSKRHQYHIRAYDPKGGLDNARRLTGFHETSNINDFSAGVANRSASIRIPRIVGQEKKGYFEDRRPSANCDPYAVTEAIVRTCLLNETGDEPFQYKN
Experimental: GS activity was assessed as mentioned above for purified sheep brain GS.

glutamine synthetase = biological target: T2, glutamine synthetase (Rattus norvegicus, UniProt P09606); assay: Proteins precipitated by NF from rat brain homogenate (mass spectrometry); format: binding; details: 8% gel, native conditions
T2 construct: Wistar rat brain homogenates were incubated with naftazone; from tissue; host or cells: Wistar rat brain homogenate or membranes; in A19 also liver and lungs
T2 sequence (P09606 2-373 limits assumed): as above

purified pig brain GS = biological target: T3, purified pig brain GS (Sus scrofa, UniProt P46410); assay: Interaction of NF and purified pig GS (agarose diffusion, precipitation, spot blot, western blot); format: binding
T3 construct: Fifty microlitre of purified pig brain GS (3 mg/ml) was added to one peripheral well; from tissue; host or cells: pig brain (purified enzyme)
T3 sequence (P46410 2-373 limits assumed): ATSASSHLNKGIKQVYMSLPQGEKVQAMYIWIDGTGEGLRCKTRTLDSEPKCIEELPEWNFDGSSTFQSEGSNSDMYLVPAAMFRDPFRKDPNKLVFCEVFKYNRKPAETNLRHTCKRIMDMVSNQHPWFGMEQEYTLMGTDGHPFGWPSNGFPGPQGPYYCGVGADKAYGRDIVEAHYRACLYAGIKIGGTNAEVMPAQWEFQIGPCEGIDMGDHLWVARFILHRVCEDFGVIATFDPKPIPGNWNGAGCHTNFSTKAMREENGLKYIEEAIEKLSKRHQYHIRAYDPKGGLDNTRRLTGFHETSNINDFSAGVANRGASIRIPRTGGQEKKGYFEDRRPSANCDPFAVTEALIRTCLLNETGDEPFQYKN
Experimental: Five ml of agarose 0.1% were let to polymerise in a Petri dish. Five wells with equal volume and distance from each other, 1 central and 4 peripherals, were made on it using a 300 μl tip. The central well was filed with 50 μl of NF solution ([…]). Fifty microlitre of purified pig brain GS (3 mg/ml) was added to one peripheral well. In two other wells either 50 μl of TBS or FCS was added. The gel was humidified and left at 37° C. for 48 h.
The final concentration of methanol per assay tube was 10% V/V. Fixed (3 mg/ml) or variable (0.023 to 3 mg/ml) concentrations of either purified brain pig GS or rat brain homogenates were added to each assay tube. The tubes were incubated a room temperature for 5 min. Methanol (10%) and FCS were used as negative controls. The tubes were thereafter centrifuged at 700 g. Supernatant was discarded and the pellets were suspended in 100 μl working buffer and incubated for 15 min at 37° C. The reaction was finally stopped and absorbance was measured as described above.
Twenty μl of agarose gel with precipitated NF/protein complexes issued from diffusion study was applied to methanol activated PVDF membrane. Non-specific binding sites were blocked by 5% low fat skimmed milk in TBS buffer, supplemented with 0.1% tween 20. Transferred proteins were allowed to react with either polyclonal rabbit anti-GS (1/3000) or anti-GR (1/3000) antibodies for 30 min at room temperature. After one quick wash with TBS, 0.1% tween 20, horseradish peroxidase conjugated goat anti-rabbit antibody was subjected (1/5000) to the transferred proteins for 30 min at room temperature.
Twenty μl per well of precipitated NF/protein complex were separated on 8% SDS-PAGE gel in absence or presence of 2β-mercaptoethanol. The proteins separated in presence or the absence of SDS were thereafter transferred to a nitrocellulose membrane ([…]). Non-specific binding sites were blocked by 5% low fat skimmed milk in TBS buffer, supplemented with 0.1% tween 20. Transferred proteins were thereafter allowed to react with either polyclonal rabbit anti-GS (1/3000) or anti-GR (1/3000) antibodies for 30 min at room temperature. After one quick wash with TBS, 0.1% tween 20, horseradish peroxidase conjugated goat anti-rabbit antibody was subjected (1/5000) to the transferred proteins for 30 min at room temperature.

Chain of GS (Rattus norvegicus, UniProt P09606) (P09606 2-373 limits assumed): as the sequence (P09606 2-373 limits assumed) above

| Compound | Ki (GS (mung bean)) [µM] | GS activity in the cortex (GS [1]; NF 1 and 10 mg/kg i.p.) | GS activity in the hippocampus (GS [1]; NF 1 and 10 mg/kg i.p.) | GS activity in the thalamus/hypothalamus (GS [1]; NF 1 and 10 mg/kg i.p., twenty four hours after administration) | dose of maximum effect on hippocampus GS activity (GS [1]; rat, in vivo) [mg/kg] | adrenal weight ([2]; GF 0.001, 0.01, 0.1 mg/kg, NF 1 and 10 mg/kg, methyprednisolone 5 mg/kg i.p., 21 days, versus PCB) | dose relation of the effect on adrenal weight ([2]; rat, in vivo) | GS activity in the hippocampus (GS [3]) | GS activity in the thalamus/hypothalamus (GS [3]; GF 1 mg/kg) | “high” concentration range inhibiting GS activity (Wistar rat brain GS) | presence of G-actin in the isolated band (glutamine synthetase) [%] | presence of glutamine synthetase in the isolated band (glutamine synthetase) [%] | interaction between NF and purified pig GS in agarose (0.1%) gel (purified pig brain GS; Commassie blue) | precipitation of GS protein by different concentration of NF (purified pig brain GS; NF 6.3e^−19 to 4.8e^−7 M, GS 3 mg/ml) | identity of the precipitated protein (dotblot) (purified pig brain GS; anti-GS antibodies) | precipitated proteins subjected to rabbit anti-GR antibodies (purified pig brain GS; purified pig GS and whole rat brain homogenates) |
| --- | --- | --- | --- | --- | --- | --- | --- | --- | --- | --- | --- | --- | --- | --- | --- | --- |
| NC1(C(=O)O)COC(P(=O)(O)O)C1 (centres unmarked) [Tetrahydrofuran phosphinothricin, 3-Amino-5-phosphono-tetrahydro-furan-3-carboxylic acid] | 5 | – | – | – | – | – | – | – | – | – | – | – | – | – | – | – |
| NC(=O)NN=C1C=Cc2ccccc2C1=O [NF, 1-oxo, 2 naphtyl semicarbazone] | – | No significant treatment-effect | increased GS activity | dose-dependently decreased GS activity | 1 | higher | dose-dependent effect | trend to an increase of GS activity | decreased | 10^−12 to 10^−14 M | 70 | 30 | revealed a clear precipitated protein | precipitated dose dependently GS protein | revealed specifically glutamine synthetase | did not reveal any protein |
| NC1(C(=O)O)CCC(P(=O)(O)O)C1 (centres unmarked) [Cyclopentane phosphinothricin, 1-Amino-3-phosphono-cyclopentane-carboxylic acid] | 0.47 | – | – | – | – | – | – | – | – | – | – | – | – | – | – | – |
